Consider 29 compounds from patent publication US9085555B2, “Complement pathway modulators and uses thereof” (priority 2011, dated 2015).

The assay deals with Factor D (Homo sapiens (Human), UniProt P00746). The assay is described as follows: biochemical. The class given is biochemical.

Read-outs that look alike come from different tables or passages of the source.

Sequence of Factor D (P00746 26-253): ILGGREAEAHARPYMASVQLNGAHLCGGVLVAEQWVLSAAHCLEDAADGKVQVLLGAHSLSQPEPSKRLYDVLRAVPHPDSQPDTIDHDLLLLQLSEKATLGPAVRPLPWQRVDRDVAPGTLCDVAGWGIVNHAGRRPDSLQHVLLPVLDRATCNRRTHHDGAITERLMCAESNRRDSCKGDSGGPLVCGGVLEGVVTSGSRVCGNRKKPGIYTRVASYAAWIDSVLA

For the compound “2S,3R)-3-(2-Methoxy-ethylamino)-pyrrolidine-1,2-dicarboxylic acid 1-[(1-carbamoyl-1H-indol-3-yl)-amide]2-(3-chloro-2-fluoro-benzylamide [Example 423]”, the IC50 (read-out: IC50) turned out to be 780 nM. Take “2S,3R)-3-Acetylamino-pyrrolidine-1,2-dicarboxylic acid 1-[(1-carbamoyl-1H-indol-3-yl)-amide]2-(3-chloro-2-fluoro-benzylamide [Example 422]”: the IC50 (read-out: IC50) came out at 888 nM. On the same count and under the same terms, the figure for `NC(=O)n1cc(NC(=O)N2C[C@H](F)C[C@H]2C(=O)NC2CCOc3ccc(Cl)cc32)c2ccccc21` (mixture of isomers) [Example 326, (2S,4R)-4-Fluoro-pyrrolidine-1,2-dicarboxylic acid 1-[(1-carbamoyl-1H-indol-3-yl)-amide] 2-[(6-chloro-chroman-4-yl)-amide] (mixture of 2 diastereomers)] is 7150 nM; for `NC(=O)n1cc(NC(=O)N2N=CCC2C(=O)NCc2cccc(Cl)c2F)c2ccccc21` (racemic) [Example 201, 4,5-Dihydro-pyrazole-1,5-dicarboxylic acid 1-[(1-carbamoyl-1H-indol-3-yl)-amide] 5-(3-chloro-2-fluoro-benzylamide)] it is 20 nM. With `NC(=O)n1cc(NC(=O)N2C[C@@H](N)C[C@H]2C(=O)NC[C@H]2CCCC[C@@H]2O)c2ccccc21` (relative stereo) [Example 75, (2S,4S)-4-Amino-pyrrolidine-1,2-dicarboxylic acid 1-[(1-carbamoyl-1H-indol-3-yl)-amide] 2-[((1R*,2S*)-2-hydroxy-cyclohexylmethyl)-amide]], the half-maximal inhibitory concentration (IC50) turned out to be 12600 nM. On the same count and under the same terms, for `NC(=O)n1cc(NC(=O)N2C[C@H]3C[C@H]3[C@H]2C(=O)NCc2cccc(Cl)c2)c2ccccc21` (relative stereo) [Example 167, (1R*,2S*,5S*)-3-Aza-bicyclo[3.1.0]hexane-2,3-dicarboxylic acid 3-[(1-carbamoyl-1H-indol-3-yl)-amide] 2-(3-chloro-benzylamide)] the value was 108 nM; for `NC(=O)n1cc(NC(=O)N2C[C@@H]3C[C@@H]3[C@H]2C(=O)NCc2cccc(Cl)c2F)c2cc(OCCO)ccc21` (relative stereo) [Example 382, 1S*,2S*,5R*)-3-Aza-bicyclo[3.1.0]hexane-2,3-dicarboxylic acid 3-{[1-carbamoyl-5-(2-hydroxy-ethoxy)-1H-indol-3-yl]-amide}2-(3-chloro-2-fluoro-benzylamide], 184 nM.

`NC(=O)n1cc(CC(=O)N2C[C@@H]3C[C@@H]3[C@H]2C(=O)NCc2cccc(Cl)c2F)c2cc(OCCO)ccc21` (relative stereo) [Example 465, 3-{2-[(1S*,2S*,5R*)-2-(3-Chloro-2-fluoro-benzylcarbamoyl)-3-aza-bicyclo[3.1.0]hex-3-yl]-2-oxo-ethyl}-5-(2-hydroxy-ethoxy)-indole-1-carboxylic acid amide] returned a 50% inhibitory concentration (IC50) of 1590 nM. Regarding `NC(=O)n1cc(NC(=O)N2N=CC[C@H]2C(=O)NCc2cccc(Cl)c2F)c2ccccc21` (single isomer, unassigned) [Example 362, S^§)-4,5-Dihydro-pyrazole-1,5-dicarboxylic acid 1-[(1-carbamoyl-1H-indol-3-yl)-amide]5-(3-chloro-2-fluoro-benzylamide], the IC50 (read-out: IC50) was found to be 5 nM. Take `NC(=O)n1cc(NC(=O)N2N=CC[C@@H]2C(=O)NCc2cccc(Cl)c2F)c2ccccc21` (single isomer, unassigned) [Example 363, R^§)-4,5-Dihydro-pyrazole-1,5-dicarboxylic acid 1-[(1-carbamoyl-1H-indol-3-yl)-amide]5-(3-chloro-2-fluoro-benzylamide]: for the setting “read-out: IC50”, the IC50 stood at 9250 nM. On the same count and under the same terms, the figure for `C[C@@H](NC(=O)[C@@H]1[C@H](O)CCN1C(=O)Nc1cn(C(N)=O)c2ccccc12)c1cccc(Cl)c1F` (single isomer, unassigned) [Example 364] is 900 nM. Same read-out and setting: the figure for `C[C@H](NC(=O)[C@@H]1[C@H](O)CCN1C(=O)Nc1cn(C(N)=O)c2ccccc12)c1cccc(Cl)c1F` (single isomer, unassigned) [Example 365] is 45 nM. The same measure, in the same setting: for `COC(=O)C(NC(=O)[C@@H]1C[C@H](N)CN1C(=O)Nc1cn(C(N)=O)c2ccccc12)C(C)C` (stereo in doubt) [Example 94, (R)-2-{[(2S,4S)-4-Amino-1-(1-carbamoyl-1H-indol-3-ylcarbamoyl)-pyrrolidine-2-carbonyl]-amino}-3-methyl-butyric acid methyl ester] the value was 11000 nM; for `NC(=O)n1cc(NC(=O)N2C[C@H](F)C[C@H]2C(=O)NCc2cccc(Cl)c2F)c2ccccc21` [Example 1], 7 nM.

For the compound `NC(=O)n1cc(NC(=O)N2C[C@H](F)C[C@H]2C(=O)NCc2ccccc2)c2ccccc21` [Example 2, (2S,4R)-4-Fluoro-pyrrolidine-1,2-dicarboxylic acid 2-benzylamide 1-[(1-carbamoyl-1H-indol-3-yl)-amide]], the IC50 (read-out: IC50) worked out at 25 nM. The same measure, in the same setting: for `NC(=O)n1cc(NC(=O)N2C[C@H](F)C[C@H]2C(=O)NCc2cccnc2)c2ccccc21` [Example 3, (2S,4R)-4-Fluoro-pyrrolidine-1,2-dicarboxylic acid 1-[(1-carbamoyl-1H-indol-3-yl)-amide] 2-[(pyridin-3-ylmethyl)-amide]] the value was 450 nM; for `COCCN(C)Cc1cc(Cl)c(F)c(CNC(=O)[C@@H]2C[C@@H](F)CN2C(=O)Nc2cn(C(N)=O)c3ccccc23)c1` [Example 4, (2S,4R)-4-Fluoro-pyrrolidine-1,2-dicarboxylic acid 1-[(1-carbamoyl-1H-indol-3-yl)-amide] 2-(3-chloro-2-fluoro-5-{[(2-methoxy-ethyl)-methyl-amino]-methyl}-benzylamide)], 3980 nM. `NC(=O)n1cc(NC(=O)N2C[C@H](F)C[C@H]2C(=O)N[C@H](CO)c2cccc(Cl)c2F)c2ccccc21` [Example 5, (2S,4R)-4-Fluoro-pyrrolidine-1,2-dicarboxylic acid 1-[(1-carbamoyl-1H-indol-3-yl)-amide] 2-{[(S)-1-(3-chloro-2-fluoro-phenyl)-2-hydroxy-ethyl]-amide}]: the IC50 (read-out: IC50) is 30 nM. Same read-out and setting: the figure for `NC(=O)n1cc(NC(=O)N2C[C@H](F)C[C@H]2C(=O)NCc2ccncc2)c2ccccc21` [Example 6, (2S,4R)-4-Fluoro-pyrrolidine-1,2-dicarboxylic acid 1-[(1-carbamoyl-1H-indol-3-yl)-amide] 2-[(pyridin-4-ylmethyl)-amide]] is 2100 nM; for `NC(=O)n1cc(NC(=O)N2C[C@H](F)C[C@H]2C(=O)NCc2cccc(Cl)c2)c2ccccc21` [Example 8, (2S,4R)-4-Fluoro-pyrrolidine-1,2-dicarboxylic acid 1-[(1-carbamoyl-1H-indol-3-yl)-amide] 2-(3-chloro-benzylamide)] it is 9 nM; for `NC(=O)n1cc(NC(=O)N2C[C@H](F)C[C@H]2C(=O)NCc2cccc(O)c2)c2ccccc21` [Example 9, (2S,4R)-4-Fluoro-pyrrolidine-1,2-dicarboxylic acid 1-[(1-carbamoyl-1H-indol-3-yl)-amide] 2-(3-hydroxy-benzylamide)] it is 250 nM. The same measure, in the same setting: the figure for `CN1CCN(Cc2cc(Cl)c(F)c(CNC(=O)[C@@H]3C[C@@H](F)CN3C(=O)Nc3cn(C(N)=O)c4ccccc34)c2)CC1` [Example 10, (2S,4R)-4-Fluoro-pyrrolidine-1,2-dicarboxylic acid 1-[(1-carbamoyl-1H-indol-3-yl)-amide] 2-[3-chloro-2-fluoro-5-(4-methyl-piperazin-1-ylmethyl)-benzylamide]] is 604 nM; for `NC(=O)n1cc(NC(=O)N2C[C@H](F)C[C@H]2C(=O)NCc2ccc(Cl)s2)c2ccccc21` [Example 11, (2S,4R)-4-Fluoro-pyrrolidine-1,2-dicarboxylic acid 1-[(1-carbamoyl-1H-indol-3-yl)-amide] 2-[(5-chloro-thiophen-2-ylmethyl)-amide]] it is 7 nM. `CCN(CC)Cc1cc(Cl)c(F)c(CNC(=O)[C@@H]2C[C@@H](F)CN2C(=O)Nc2cn(C(N)=O)c3ccccc23)c1` [Example 12, (2S,4R)-4-Fluoro-pyrrolidine-1,2-dicarboxylic acid 1-[(1-carbamoyl-1H-indol-3-yl)-amide] 2-(3-chloro-5-diethylamino-methyl-2-fluoro-benzyl-amide)]: the IC50 (read-out: IC50) was found to be 11100 nM.

Consider `NC(=O)n1cc(NC(=O)N2C[C@H](F)C[C@H]2C(=O)N[C@H](CO)c2ccccc2)c2ccccc21` [Example 13, (2S,4R)-4-Fluoro-pyrrolidine-1,2-dicarboxylic acid 1-[(1-carbamoyl-1H-indol-3-yl)-amide] 2-[((S)-2-hydroxy-1-phenyl-ethyl)-amide]], for which the IC50 (read-out: IC50) came out at 139 nM. On the same count and under the same terms, for `CC[C@H](C)[C@H](NC(=O)[C@@H]1C[C@@H](F)CN1C(=O)Nc1cn(C(N)=O)c2ccccc12)C(=O)OC(C)(C)C` [Example 15, (2S,3S)-2-{[(2S,4R)-1-(1-Carbamoyl-1H-indol-3-ylcarbamoyl)-4-fluoro-pyrrolidine-2-carbonyl]-amino}-3-methyl-pentanoic acid tert-butyl ester] the value was 1100 nM; for `CN(C)CCN(C)Cc1cc(Cl)c(F)c(CNC(=O)[C@@H]2C[C@@H](F)CN2C(=O)Nc2cn(C(N)=O)c3ccccc23)c1` [Example 17, (2S,4R)-4-Fluoro-pyrrolidine-1,2-dicarboxylic acid 1-[(1-carbamoyl-1H-indol-3-yl)-amide] 2-(3-chloro-5-{[(2-dimethylamino-ethyl)-methyl-amino]-methyl}-2-fluoro-benzylamide)], 4050 nM; for `NC(=O)n1cc(NC(=O)N2C[C@H](F)C[C@H]2C(=O)NCc2cc(CN3CCOCC3)cc(Cl)c2F)c2ccccc21` [Example 18, (2S,4R)-4-Fluoro-pyrrolidine-1,2-dicarboxylic acid 1-[(1-carbamoyl-1H-indol-3-yl)-amide] 2-(3-chloro-2-fluoro-5-morpholin-4-ylmethyl-benzylamide)], 815 nM. On the same count and under the same terms, for `COC1CCN(Cc2cc(Cl)c(F)c(CNC(=O)[C@@H]3C[C@@H](F)CN3C(=O)Nc3cn(C(N)=O)c4ccccc34)c2)CC1` [Example 20, (2S,4R)-4-Fluoro-pyrrolidine-1,2-dicarboxylic acid 1-[(1-carbamoyl-1H-indol-3-yl)-amide] 2-(3-chloro-2-fluoro-5-(4-methoxy-piperidin-1-ylmethyl)-benzylamide]] the value was 1130 nM.

Broadly, the IC50 is the concentration needed to halve the response being measured.
